In brackets after ≈: the same amount, converted by molar mass.
Experiments:
[1] = test system: granulomas in female rats; test: Felt Pellet Test (granuloma reduction, oral); assay type: in vivo; settings: Rattus norvegicus, four successive days, female rats (90-110 g), removed on 5th day, read-out: Felt Pellet ED40 (dosage which gave a 40% reduction of the granulation weight)
Protocol: (§1) The tests carried out can be described as follows:
Two felt pellets were implanted under the skin (scapula region) in female rats (90-110 g) under ether narcosis. The D-homosteroids were administered orally on four successive days commencing on the day of the implantation. On the 5th day, the rats were killed, and the granulomas which formed were removed, dried and weighed. The ED40, namely that dosage which gave a 40% reduction of the granulation weight, was determined.

[2] = test system: ear of male mice (oedema); test: Mouse Ear Test (oedema inhibition, topical, croton oil); assay type: in vivo; settings: dissolved in croton oil, applied 15 seconds under 600 g to right ear of male mice (25-30 g), 4 hours, read-out: Mouse Ear EC50 (concentration which gave a 50% oedema inhibition in comparison with a control group)
Protocol: as §1
The D-homosteroids, dissolved in croton oil, were applied for 15 seconds under a pressure of 600 g to the right ear of male mice weighing 25-30 g. The left ear served as the control. Four hours later, the mice were killed, and tissue was removed with a punch from the same position on treated and untreated ears and weighed. The EC50, namely that concentration which gave a 50% oedema inhibition in comparison with a control group, was determined.

SMILES	ED40 [1] [mg/kg]	EC50 [2] [µg/mL]
COC(=O)C1(OC(C)=O)C=CCC2C3CCC4=CC(=O)C=CC4(C)C3C(O)CC21C [17aα-acetoxy-11β-hydroxy-3-oxo-D-homoandrosta-1,4,16-triene-17aβ-carboxylic acid methyl ester]	6.4	30 (≈ 72.4 µM)
COC(=O)C1(OC(C)=O)C=CCC2C3CCC4=CC(=O)C=CC4(C)C3(F)C(O)CC21C [17-acetoxy-9-fluoro-11β-hydroxy-3-oxo-D-homoandrosta-1,4,16-triene-17aβ-carboxylic acid methyl ester]	6	10 (≈ 23.1 µM)

Reference: US4272630A, “D-Homosteroids” (priority 1979, dated 1981)
